According to patent publication US20240270811A1, “Glycosylated Neuropeptide Derivative, Pharmaceutical Composition, Intranasal/Nasal Drop Formulation, and Use of Pharmaceutical Composition” (Tokyo University of Science Foundation, priority 2021, published 2024):
Where no end group is shown, it is not given here. The star is where a group is joined. X1 = CC(=O)N[C@@H]1[C@@H](O)[C@H](O[C@@H]2O[C@H](CO)[C@@H](O[C@@H]3O[C@H](CO[C@H]4O[C@H](CO)[C@@H](O)[C@H](O)[C@@H]4O[C@@H]4O[C@H](CO)[C@@H](O[C@@H]5O[C@H](CO[C@]6(C(=O)O)C[C@H](O)[C@@H](NC(C)=O)[C@H]([C@H](O)[C@H](O)CO)O6)[C@H](O)[C@H](O)[C@H]5O)[C@H](O)[C@H]4NC(C)=O)[C@@H](O)[C@H](O[C@H]4O[C@H](CO)[C@@H](O)[C@H](O)[C@@H]4O[C@@H]4O[C@H](CO)[C@@H](O[C@@H]5O[C@H](CO[C@]6(C(=O)O)C[C@H](O)[C@@H](NC(C)=O)[C@H]([C@H](O)[C@H](O)CO)O6)[C@H](O)[C@H](O)[C@H]5O)[C@H](O)[C@H]4NC(C)=O)[C@@H]3O)[C@H](O)[C@H]2NC(C)=O)[C@@H](CO)O[C@H]1NC(=O)C*

Assays:
[1] = Distribution in brain by immunostaining of frozen brain sections (Example 6); type: in vivo, mouse; settings: 3.0 nmol/4 μL intranasal
Procedure: The distribution in the brain of a glycosylated GLP-2 derivative (11-sugar) after intranasally administered was evaluated by preparing frozen brain sections and subjecting the same to immunostaining. The brain sections were prepared from tissues around the hippocampus (HIP), dorsomedial nucleus of the hypothalamus (DMH), olfactory bulb (OB), and pons/principal sensory nucleus of trigeminal nerve (Pr5). The olfactory bulb includes olfactory nerves, which are assumed to be a pathway for the migration of GLP-2.
After anesthetizing 7-week-old male ddY mice with isoflurane using an all-in-one small animal anesthetizer, a 16% DMSO solution of a PAS-CPP-GLP-2 derivative (11-sugar) (3.0 nmol/4 μL) or 16% DMSO as a control was intranasally administered to the mice by the amount of 2 μL per nose cavity, 4 μL in total. The brain was isolated 5 minutes after the administration and 20 minutes after administration.
(§1) The brain isolated 5 minutes after the intranasal administration was subjected to infiltration fixation with 4% PFA at 4° C. overnight without performing perfusion fixation. The isolation of the brain 20 minutes after the intranasal administration was performed by the following process.
(§2) The mouse is fixed in a supine position under anesthesia with isoflurane, and the chest was incised. PBS and 4% PFA were perfused, in this order, from the left chamber of the heart throughout the whole body for fixing the tissue. The isolated brain was preserved in a 4% PFA solution. On the day following the isolation, the brain samples were substituted with 20% sucrose overnight (4° C.), and further with 30% sucrose overnight (4° C.). Thereafter, a frozen section with a thickness of 30 μm was prepared using a cryostat (CM3050S; Leica Microsystems).
(§3) The frozen brain section was mounted on a slide glass, and a circle was drawn around the section with a liquid blocker. A blocking buffer was added inside the circle and the section was subjected to blocking for 30 minutes at room temperature. Thereafter, the section was added with a first antibody solution including a GLP-2 polyclonal antibody, diluted 200 times with a blocking solution, and subjected to incubation for 1 hour at room temperature. After washing three times with 1×PBS, the section was added with a second antibody solution including Alexa Fluor (trademark) 568 Goat Anti-Mouse IgG H&L, diluted 500 times with a BSA/PBS solution, and subjected to incubation for 1 hour at room temperature. After washing three times with 1×PBS, the section was mounted with ProLong (trademark) Diamond Antifade Mountant. After confirming the solidification of the mountant, the section was subjected to fluorescent observation and imaging with a confocal laser microscope (TCS SP8; Leica) and a software (Leica Application Suite X Software; Leica).

[2] = Brain distribution by immunostaining and fluorescence quantification (Example 7); type: in vivo; settings: 3.0 nmol/mouse intranasal
Procedure: Mice were intranasally administered with 16% DMSO or GLP-2 derivatives (3.0 nmol/mouse), and the brain was isolated 5 minutes, 10 minutes, 20 minutes and 60 minutes after the administration.
as §1, with “isolated 5 minutes or 10 minutes after” for “isolated 5 minutes after”, “20 minutes or 60 minutes after the” for “20 minutes after the”
as §2, with “mouse was” for “mouse is”
Sections of the olfactory bulb (OB) including olfactory nerves, pons/principal sensory nucleus of trigeminal nerve (Pr5), hippocampus (HIP) and dorsomedial nucleus of the hypothalamus (DMH) were prepared by referring to Nissil staining images and the brain map (Paxinos and Franklin, 2003).
as §3, with “Leica). Further, the fluorescent intensity in the image was calculated using the software and an average florescent intensity of each group was quantified.” for “Leica).”
The mice were intranasally administered with a PAS-CPP-GLP-2 (no sugar) or a PAS-CPP-GLP-2 (11-sugar).

[3] = Migration to central nervous system, optical imaging of brain sagittal sections (ICG-labelled derivatives); type: in vivo, mouse; settings: for fluorescence in brain section: 3.0 nmol/4 μL intranasal
Procedure: Administration solutions were prepared by completely dissolving a PAS-CPP-GLP-2 derivative (no sugar) labelled with ICG or a PAS-CPP-GLP-2 derivative (11-sugar) labelled with ICG in DMSO, and adjusting the final concentration of DMSO to 16% by adding PBS.
The concentration of a PAS-CPP-GLP-2 derivative (no sugar) or a PAS-CPP-GLP-2 derivative (11-sugar) was adjusted to 3.0 nmol/4 μL.
After anesthetizing mice with isoflurane using an all-in-one small animal anesthetizer, the administration solutions or 16% DMSO as a control was intranasally administered to the mice by the amount of 2 μL per nose cavity, 4 μL in total.
In order to observe the migration to the brain over time, the brain was isolated 5 minutes, 10 minutes, 20 minutes, 60 minutes and 90 minutes after the intranasal administration, respectively, and subjected to infiltration fixation with 4% paraformaldehyde (4% PFA) solution overnight. Subsequently, a sagittal section with a thickness of 2 mm at the left and the right from the center of the brain was prepared using a brain matrix (RBM-2000S, ASI). The section was placed in a dish and analyzed with an optical imaging apparatus (Clairvivo OPT plus, Shimadzu Corporation) at an excitation wavelength of 785 nm, fluorescence wavelength of 849 nm, and an exposure time: 6 seconds.

Substance: FFLIPKGRRRRRRRRGGHADGSFSDEMNTILDNLAARDFINWLIQTKITDC(X1)-OH [PAS-CPP-GLP-2 (11-sugar)]
- fluorescence at region around Pr5 ([1]; 5 minutes): fluorescence was observed intensely
- fluorescence at the other regions (HIP, DMH, OB) ([1]; 5 minutes): very little fluorescence was observed
- fluorescence at DMH ([1]; 20 minutes): observed clearly
- fluorescence at HIP ([1]; 20 minutes): fluorescence was observed
- fluorescence at Pr5 ([1]; 20 minutes): florescence was observed
- fluorescence intensity at OB ([1]; 20 minutes): weak
- fluorescence at OB and Pr5 ([2]; 5 minutes): a significant degree of fluorescence was observed
- fluorescence at HIP and DMH ([2]; 20 minutes): intense fluorescence was observed
- fluorescence intensity at OB or Pr5 compared with 5 minutes ([2]; 20 minutes): weaker than the fluorescence observed 5 minutes after the administration
- fluorescence at HIP and DMH ([2]; 60 minutes): a significant degree of fluorescence was observed
- fluorescence at OB and Pr5 ([2]; 60 minutes): a significant degree of fluorescence was observed
- fluorescence intensity at OB and Pr5 compared with 5 minutes ([2]; 60 minutes): weaker than the fluorescence observed 5 minutes after the administration
- fluorescence in brain section ([3]; 5 minutes after administration): fluorescence was observed
- fluorescence in brain section ([3]; 10 minutes after administration): fluorescence was observed intensively
- fluorescence in brain section ([3]; 20 minutes after administration): fluorescence was observed
- fluorescence in brain section ([3]; 60 minutes after administration): a relatively strong degree of fluorescence was observed
- fluorescence in brain section ([3]; 90 minutes after administration): fluorescence was not observed
- retention in brain compared with PAS-CPP-GLP-2 derivative (no sugar) ([3]; intranasal, 5-90 minutes): remains in the brain for a longer time period
